Test results: patent US11459315B2, “Modulators of methyl modifying enzymes, compositions and uses thereof” (Constellation Pharmaceuticals, Inc., priority 2017, dated 2022)
pEC50, pIC50: −log10 of the molar value. Like-named read-outs stand apart in the source and are kept apart here.

How the values were obtained:
PRC2 containing wt EZH2 = PRC2 containing wt EZH2 (Homo sapiens (Human), UniProt Q15910); assay: EZH2 biochemical assay (IC50), 3H-SAM incorporation into biotinylated H3 peptide
Protocol: EZH2 biochemical assay (IC50): Compound potencies were assessed through incorporation of ^3H-SAM into a biotinylated H3 peptide. Specifically, 30 pM PRC2 containing wt EZH2 (pentameric complex prepared in-house) was pre-incubated with 450 nM SAM, 450 nM ^3H-SAM, 2 μM H3K27me3 activating peptide (H2N-[…](Kme3)[…]-amide) and compounds (as 10 point duplicate dose response titrations in DMSO, final assay 0.8% DMSO (v/v)) for 3-5 h in 50 mM Tris (pH 8.5), 1 mM DTT, 0.07 mM Brij-35, 0.1% BSA, and 0.8% DMSO in a total volume of 12.5 μl. Reaction was initiated with biotinylated H3 substrate peptide (H2N-[…](Kme1)[…]-NTPEGBiot) as a 2 μM stock in 12.5 μl of buffer and allowed to react at room temperature for 18-22 h. Quenching was accomplished by addition of 20 μl of STOP solution (50 mM Tris (pH 8.5), 200 mM EDTA, 2 mM SAH). 35 μl of the quenched solution was transferred to streptavidin coated FlashPlates (PerkinElmer), incubated 1-2 h, washed, and read in a TopCount Reader (PerkinElmer). IC50s were calculated in Genedata Screener using non-linear least square four parameter fits, where the four parameters were IC50, Hill slope, pre-transitional baseline (0% INH), and post-transitional baseline (100% INH).
IC50 values are reported as follows: “A” indicates an IC50 value of less than 0.5 nM; “B” indicates an IC50 value of 0.5 nM to 5 nM; “C” indicates an IC50 value of greater than 5 nM for each enzyme; and “ND” is not determined.

[1] = system: H3K27me3 mark in HeLa cells (EZH2); assay: H3K27me3 Alpha Hela Assay (AlphaLISA); format: cell-based
Protocol: H3K27me3 Alpha Hela Assay (AlphaLISA). Ten different doses of each test compound (in a series of 3-fold dilutions) were plated in duplicate 384-well tissue culture treated plates (Catalog #6007680; Perkin Elmer, Waltham, Mass.). Hela cells grown in culture were trypsinized and counted using a Countess® cell counter (Catalog #C10281; Life Technologies, Grand Island, N.Y.). Cell were diluted to 67,000 cells per mL in 10% DMEM (Catalog #10569-010 Life Technologies, Grand Island, N.Y.) and 15 μL (1,000 cells) were plated into each well using the Biotek MicroFlo™ Select Dispenser (BioTek Instruments, Inc. Vermont, USA),) of the 384-well plate. Plates were incubated at 37° C./5% CO2 for 72 hrs. One of the duplicate plates was processed for HeLa assay and the other for viability.
5 μL of Cell-Histone Lysis buffer (1×) (Catalog #AL009F1 Perkin Elmer; Waltham, Mass.) per well was added to the plate processed for AlphaLISA and the plate was incubated at RT for 30 minutes on a plate shaker with low speed (Model #4625-Q Thermo Scientific; Waltham, Mass.). Then, 10 μL per well Histone Extraction buffer (catalog #AL009F2; Perkin Elmer; Waltham, Mass.) was added and the plate further incubated at RT for 20 min on plate shaker with low speed. Next, 10 μL of 5× mix of anti-K27me3 acceptor beads plus Biotinylated anti-Histone H3 (C-ter) Antibody (diluted to 3 nM final) (Catalog #AL118 Perkin Elmer; Waltham, Mass.) was added in each well. Dilution of the acceptor beads and anti-Histone H3 was done in 1× Histone Detection buffer (Catalog #AL009F3 Perkin Elmer; Waltham, Mass.) which was produced by diluting the 10× stock provided. The plate was sealed with an aluminum plate sealer and incubated at 23° C. for 60 min. Next, 10 μL 5× solution of Streptavidin Donor beads were added (Catalog #6760002 Perkin Elmer; Waltham, Mass.) (20 μg/mL final in 1× Histone Detection Buffer), =plate was sealed with Aluminum plate sealer and incubated at 23° C. for 30 min. The plates were then read using an EnVision-Alpha Reader (model #2104 Perkin Elmer; Waltham, Mass.).
Data from both assays was analyzed using Genedata (Basel, Switzerland). Data files were imported to Genedata and assay conditions were specified. A unique Analysis ID was created and the data files analysed to measure dose-dependent inhibition of H3K27me3 mark and cell viability respectively. Readout of DMSO wells were used to normalize the data. Resulting curves were fitted using Smart fit application (Genedata; Basel, Switzerland). The data was checked for quality, validated and integrated in excel format using Stardrop (Optibruim, Cambridge, UK).
EC50 values are reported as follows: “A” indicates an EC50 value of less than 10 nM; “B” indicates an EC50 value of 10 nM to 100 nM; “C” indicates an EC50 value of greater than 100 nM; and “ND” is not determined.

[2] = 30 pM PRC2 containing wt EZH2; 3-5 h pre-incubation; read-out: EZH2 (IC50)
[3] = Homo sapiens, HeLa, 72 h, HeLa cells, 72 hrs, read-out: EZH2 Cell H3K27me3 Alpha HeLa (EC50 K27me3)
[4] = HeLa cells, 72 hrs, read-out: EZH2 Cell H3K27me3 Alpha HeLa (EC50 K27me3)
[5] = EZH2 (IC50), 30 pM PRC2 containing wt EZH2; 3-5 h pre-incubation
[6] = read-out: EZH2 (IC50); 30 pM PRC2 containing wt EZH2; 3-5 h pre-incubation
[7] = HeLa cell assay, Table 3 classes, read-out: EC50 Cellular Activity
[8] = Homo sapiens, HeLa, HeLa cell assay, Table 3 classes, read-out: EC50 Cellular Activity

Sequence of PRC2 containing wt EZH2 (Q15910 whole entry): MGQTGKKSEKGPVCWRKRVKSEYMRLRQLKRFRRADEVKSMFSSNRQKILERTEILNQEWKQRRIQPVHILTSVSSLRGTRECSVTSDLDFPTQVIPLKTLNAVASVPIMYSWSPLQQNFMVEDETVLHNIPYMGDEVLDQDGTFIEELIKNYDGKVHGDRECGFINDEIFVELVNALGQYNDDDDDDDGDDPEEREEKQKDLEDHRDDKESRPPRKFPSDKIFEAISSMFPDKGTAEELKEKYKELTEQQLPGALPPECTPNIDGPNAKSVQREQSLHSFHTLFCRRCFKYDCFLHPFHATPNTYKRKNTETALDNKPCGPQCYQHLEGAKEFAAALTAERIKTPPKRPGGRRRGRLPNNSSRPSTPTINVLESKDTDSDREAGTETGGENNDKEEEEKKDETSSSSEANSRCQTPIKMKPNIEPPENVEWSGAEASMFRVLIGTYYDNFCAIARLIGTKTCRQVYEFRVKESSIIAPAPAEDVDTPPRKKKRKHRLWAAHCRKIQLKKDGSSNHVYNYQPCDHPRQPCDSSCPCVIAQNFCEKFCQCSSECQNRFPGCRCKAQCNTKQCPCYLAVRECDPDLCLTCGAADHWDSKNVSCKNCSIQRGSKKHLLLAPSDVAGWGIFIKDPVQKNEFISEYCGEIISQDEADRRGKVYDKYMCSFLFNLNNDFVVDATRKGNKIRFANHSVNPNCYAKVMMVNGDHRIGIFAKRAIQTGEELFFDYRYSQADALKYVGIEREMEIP
Sequence of PRC2 containing wt EZH2 (O75530 whole entry partner): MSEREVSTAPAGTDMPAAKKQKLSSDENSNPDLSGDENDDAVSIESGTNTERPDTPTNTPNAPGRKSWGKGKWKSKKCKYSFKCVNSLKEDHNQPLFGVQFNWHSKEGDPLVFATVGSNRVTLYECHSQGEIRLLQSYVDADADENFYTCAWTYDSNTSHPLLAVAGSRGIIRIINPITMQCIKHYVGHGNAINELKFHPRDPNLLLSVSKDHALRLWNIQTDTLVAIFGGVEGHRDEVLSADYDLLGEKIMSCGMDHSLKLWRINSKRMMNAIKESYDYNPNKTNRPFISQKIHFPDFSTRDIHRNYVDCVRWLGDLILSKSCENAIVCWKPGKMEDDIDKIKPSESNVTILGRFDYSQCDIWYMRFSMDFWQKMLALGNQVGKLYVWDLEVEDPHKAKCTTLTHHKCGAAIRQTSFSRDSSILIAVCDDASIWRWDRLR
Sequence of PRC2 containing wt EZH2 (Q15022 whole entry partner): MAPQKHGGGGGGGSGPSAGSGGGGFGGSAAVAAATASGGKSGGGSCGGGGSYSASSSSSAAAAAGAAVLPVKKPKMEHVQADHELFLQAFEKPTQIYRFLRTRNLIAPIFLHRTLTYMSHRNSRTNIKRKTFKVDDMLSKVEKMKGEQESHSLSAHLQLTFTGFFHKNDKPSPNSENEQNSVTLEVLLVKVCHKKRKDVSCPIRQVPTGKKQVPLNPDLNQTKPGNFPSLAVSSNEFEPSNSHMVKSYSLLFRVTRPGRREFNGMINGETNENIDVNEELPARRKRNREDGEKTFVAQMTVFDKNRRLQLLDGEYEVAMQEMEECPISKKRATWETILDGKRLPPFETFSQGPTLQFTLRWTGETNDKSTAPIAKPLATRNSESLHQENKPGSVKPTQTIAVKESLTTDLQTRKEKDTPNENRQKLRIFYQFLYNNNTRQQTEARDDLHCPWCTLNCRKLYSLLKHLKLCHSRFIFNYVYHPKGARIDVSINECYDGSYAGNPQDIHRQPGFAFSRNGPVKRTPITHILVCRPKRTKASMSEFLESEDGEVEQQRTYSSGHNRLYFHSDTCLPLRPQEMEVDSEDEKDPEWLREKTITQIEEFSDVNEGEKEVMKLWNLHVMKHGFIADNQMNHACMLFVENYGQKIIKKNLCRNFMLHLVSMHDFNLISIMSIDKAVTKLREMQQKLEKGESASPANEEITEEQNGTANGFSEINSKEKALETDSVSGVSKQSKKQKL
Sequence of PRC2 containing wt EZH2 (Q09028 whole entry partner): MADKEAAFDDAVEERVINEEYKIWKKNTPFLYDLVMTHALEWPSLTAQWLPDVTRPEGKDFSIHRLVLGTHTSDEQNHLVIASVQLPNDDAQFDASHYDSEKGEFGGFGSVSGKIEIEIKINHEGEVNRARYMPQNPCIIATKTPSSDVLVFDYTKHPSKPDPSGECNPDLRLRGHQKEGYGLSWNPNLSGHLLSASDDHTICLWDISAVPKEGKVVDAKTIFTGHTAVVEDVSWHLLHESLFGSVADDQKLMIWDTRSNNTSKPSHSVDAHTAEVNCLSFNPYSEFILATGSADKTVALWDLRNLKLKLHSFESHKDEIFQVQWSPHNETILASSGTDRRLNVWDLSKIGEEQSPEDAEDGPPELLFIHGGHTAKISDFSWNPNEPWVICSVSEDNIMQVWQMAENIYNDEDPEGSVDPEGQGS
Sequence of PRC2 containing wt EZH2 (Q6ZN18 whole entry partner): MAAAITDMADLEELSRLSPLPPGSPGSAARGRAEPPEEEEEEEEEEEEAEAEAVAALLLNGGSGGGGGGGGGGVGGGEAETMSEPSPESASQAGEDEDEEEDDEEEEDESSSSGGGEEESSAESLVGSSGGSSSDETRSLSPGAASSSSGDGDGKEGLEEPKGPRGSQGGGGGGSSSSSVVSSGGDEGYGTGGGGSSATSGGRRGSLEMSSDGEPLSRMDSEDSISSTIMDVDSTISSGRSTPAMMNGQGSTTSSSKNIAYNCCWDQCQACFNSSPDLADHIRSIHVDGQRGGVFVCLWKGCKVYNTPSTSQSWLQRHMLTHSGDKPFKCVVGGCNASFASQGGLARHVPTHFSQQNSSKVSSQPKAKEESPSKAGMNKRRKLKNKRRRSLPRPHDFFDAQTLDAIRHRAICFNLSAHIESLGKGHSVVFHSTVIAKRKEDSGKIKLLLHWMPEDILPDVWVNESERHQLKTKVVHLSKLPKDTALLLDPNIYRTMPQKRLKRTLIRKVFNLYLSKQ

`CSc1cc(C)[nH]c(=O)c1CNC(=O)c1c(C)n([C@H](C)C2CCC(NC3(CF)COC3)CC2)c2ncncc12` (single isomer, unassigned) [156 (isomer 1)] was tested, and the pIC50 (PRC2 containing wt EZH2; [2]) was > 9.30 and the pEC50 [1, 3] was > 8.00.

`COC1CN(C2CCC([C@@H](C)n3c(C)c(C(=O)NCc4c(SC)cc(C)[nH]c4=O)c4cc(Cl)cnc43)CC2)C1` (single isomer, unassigned) [106 (isomer 2)] was tested, and the pIC50 (PRC2 containing wt EZH2; [2]) was > 9.30 and the pEC50 [1, 4] was 7.00 to 8.00.

`COC1CCC([C@@H](C)n2c(C)c(C(=O)NCc3c(SC)cc(C)[nH]c3=O)c3ccccc32)CC1` (single isomer, unassigned) [18 (isomer 1)] was tested, and the pIC50 (PRC2 containing wt EZH2; [5]) was > 9.30 and the pEC50 [1, 3] was > 8.00.

For `CSc1cc(C)[nH]c(=O)c1CNC(=O)c1c(C)n([C@H](C)C2CCC(NC3COC3)CC2)c2ncccc12` (single isomer, unassigned) [62 (isomer 1)], the pIC50 (PRC2 containing wt EZH2; [2]) was > 9.30 and the pEC50 [1, 4] was 7.00 to 8.00.

With `COC1CCC([C@@H](C)n2c(C)c(C(=O)NCc3c(SC)cc(C)[nH]c3=O)c3ccccc32)CC1` (single isomer, unassigned) [18 (isomer 2)] the pIC50 (PRC2 containing wt EZH2; [6]) was > 9.30 and the pEC50 [1, 4] was > 8.00.

In the case of `COC1CN(C2CCC([C@@H](C)n3c(C)c(C(=O)NCc4c(SC)cc(C)[nH]c4=O)c4cccnc43)CC2)C1` (single isomer, unassigned) [76 (isomer 1)], the pIC50 (PRC2 containing wt EZH2; [5]) was > 9.30 and the pEC50 [1, 4] was > 8.00.

In the case of `CSc1cc(C)[nH]c(=O)c1CNC(=O)c1c(C)n([C@H](C)C2CCC(NCC(F)(F)F)CC2)c2ncncc12` (stereo partly drawn) [Example 89, 6-methyl-N-((6-methyl-4-(methylthio)-2-oxo-1,2-dihydropyridin-3-yl)methyl)-7-((R)-1-(4-((2,2,2-trifluoroethyl)amino)cyclohexyl)ethyl)-7H-pyrrolo[2,3-d]pyrimidine-5-carboxamide], the pIC50 (PRC2 containing wt EZH2; [2]) was > 9.30 and the pEC50 [1, 3] was 7.00 to 8.00.

For `CSc1cc(C)[nH]c(=O)c1CNC(=O)c1c(C)n([C@H](C)C2CCC(N3CC(F)C3)CC2)c2ncncc12` (stereo partly drawn) [Example 68, 7-((R)-1-(4-(3-fluoroazetidin-1-yl)cyclohexyl)ethyl)-6-methyl-N-((6-methyl-4-(methylthio)-2-oxo-1,2-dihydropyridin-3-yl)methyl)-7H-pyrrolo[2,3-d]pyrimidine-5-carboxamide], the pIC50 (PRC2 containing wt EZH2; [5]) was > 9.30 and the pEC50 [1, 3] was > 8.00.

For `CCOC1CN(C2CCC([C@@H](C)n3c(C)c(C(=O)NCc4c(SC)cc(C)[nH]c4=O)c4cccnc43)CC2)C1` (single isomer, unassigned) [91 (isomer 1)], the pIC50 (PRC2 containing wt EZH2; [2]) was > 9.30 and the pEC50 [1, 3] was > 8.00.

For `CSc1cc(C)[nH]c(=O)c1CNC(=O)c1c(C)n([C@H](C)C2CCN(CC(C)(C)O)CC2)c2ccccc12` [Example 11, (R)-1-(1-(1-(2-hydroxy-2-methylpropyl)piperidin-4-yl)ethyl)-2-methyl-N-((6-methyl-4-(methylthio)-2-oxo-1,2-dihydropyridin-3-yl)methyl)-1H-indole-3-carboxamide], the pIC50 (PRC2 containing wt EZH2; [5]) was > 9.30 and the pEC50 [1, 3] was 7.00 to 8.00.

In the case of `CSc1cc(C)[nH]c(=O)c1CNC(=O)c1c(C)n([C@H](C)C2CCC(N3CC(OC4CC4)C3)CC2)c2ncncc12` (single isomer, unassigned) [102 (isomer 2)], the pIC50 (PRC2 containing wt EZH2; [2]) was > 9.30 and the pEC50 [1, 4] was 7.00 to 8.00.

With `CSc1cc(C)[nH]c(=O)c1CNC(=O)c1c(C)n([C@H](C)C2CCC(N3CCC(OC4CC4)C3)CC2)c2ncccc12` (stereo partly drawn) [Example 111, 1-((1R)-1-(4-(3-cyclopropoxypyrrolidin-1-yl)cyclohexyl)ethyl)-2-methyl-N-((6-methyl-4-(methylthio)-2-oxo-1,2-dihydropyridin-3-yl)methyl)-1H-pyrrolo[2,3-b]pyridine-3-carboxamide] the pIC50 (PRC2 containing wt EZH2; [2]) was > 9.30 and the pEC50 [1, 3] was 7.00 to 8.00.

In the case of `CSc1cc(C)[nH]c(=O)c1CNC(=O)c1c(C)n([C@H](C)C23CC(N(C)CC(F)(F)F)(C2)C3)c2ccccc12` [Example 10, (R)-2-methyl-1-(1-(3-(methyl(2,2,2-trifluoroethyl)amino)bicyclo[1.1.1]pentan-1-yl)ethyl)-N-((6-methyl-4-(methylthio)-2-oxo-1,2-dihydropyridin-3-yl)methyl)-1H-indole-3-carboxamide], the pIC50 (PRC2 containing wt EZH2; [2]) was > 9.30 and the pEC50 [1, 3] was > 8.00.

`CSc1cc(C)[nH]c(=O)c1CNC(=O)c1c(C)n([C@H](C)[C@H]2CC[C@H](NC3(C)COC3)CC2)c2ccccc12` (single isomer, unassigned) [1 (isomer 1)] was tested, and the pIC50 (PRC2 containing wt EZH2; [2]) was > 9.30 and the pEC50 [1, 3] was > 8.00.

With `CSc1cc(C)[nH]c(=O)c1CNC(=O)c1c(C)n([C@H](C)C2CCN(CCO)CC2)c2ccccc12` [Example 52, (R)-1-(1-(1-(2-hydroxyethyl)piperidin-4-yl)ethyl)-2-methyl-N-((6-methyl-4-(methylthio)-2-oxo-1,2-dihydropyridin-3-yl)methyl)-1H-indole-3-carboxamide] the pIC50 (PRC2 containing wt EZH2; [5]) was > 9.30 and the pEC50 [1, 3] was < 7.00.

For `CSc1cc(C)[nH]c(=O)c1CNC(=O)c1c(C)n([C@H](C)C2CCC(N3CC(F)C3)CC2)c2ccccc12` (single isomer, unassigned) [24 (isomer 2)], the pIC50 (PRC2 containing wt EZH2; [6]) was > 9.30 and the pEC50 [1, 4] was > 8.00.

In the case of `CCOC1CN(C2CCC([C@@H](C)n3c(C)c(C(=O)NCc4c(SC)cc(C)[nH]c4=O)c4cccnc43)CC2)C1` (single isomer, unassigned) [drawing 262], the pEC50 [1, 7] was 6.90 to 7.60.

`Cc1cc(C)c(CNC(=O)c2c(C)n([C@H](C)C3CCOCC3)c3ccccc23)c(=O)[nH]1` showed a pEC50 [1, 8] of 6.90 to 7.60.

`COc1cc(C)[nH]c(=O)c1CNC(=O)c1c(C)n([C@H](C)C2CCOCC2)c2ccccc12` was tested, and the pEC50 [1, 8] was 6.90 to 7.60.

`CSc1cc(C)[nH]c(=O)c1CNC(=O)c1c(C)n([C@H](C)C2CCC(NC3(C)CCOC3)CC2)c2ccccc12` (single isomer, unassigned) [drawing 270] gave a pEC50 [1, 7] of 6.90 to 7.60.

With `COc1cnc2c(c1)c(C(=O)NCc1c(SC)cc(C)[nH]c1=O)c(C)n2[C@H](C)C1CCC(N2CC(OC(F)F)C2)CC1` (single isomer, unassigned) [125 (isomer 2)] the pIC50 (PRC2 containing wt EZH2; [2]) was > 9.30.

`CSc1cc(C)[nH]c(=O)c1CNC(=O)c1c(C)n([C@H](C)C2CCC(N3CC(OC(F)F)C3)CC2)c2ccccc12` (single isomer, unassigned) [drawing 253] showed a pEC50 [1, 7] of 7.60 to 8.30.

For `COC1CCC([C@@H](C)n2c(C)c(C(=O)NCc3c(SC)cc(C)[nH]c3=O)c3ccccc32)CC1` (single isomer, unassigned) [drawing 249], the pEC50 [1, 8] was > 8.30.

`Cc1cc(Cl)c(CNC(=O)c2c(C)n([C@H](C)C3OCC(NC(C)(C)C)CO3)c3ccccc23)c(=O)[nH]1` (single isomer, unassigned) [drawing 222] was tested, and the pEC50 [1, 7] was 7.60 to 8.30.

With `COC1CN(C2CCC([C@@H](C)n3c(C)c(C(=O)NCc4c(SC)cc(C)[nH]c4=O)c4cccnc43)CC2)C1` (single isomer, unassigned) [drawing 260] the pEC50 [1, 7] was < 6.90.
